How the values were obtained:
[1] = test system: C57BL6/J mice with ulcerative colitis induced by DSS; assay: DSS-induced ulcerative colitis animal model; format: in vivo
Protocol: Specifically, an animal model of ulcerative colitis among inflammatory bowel diseases was prepared by feeding C57BL6/J mice (Central Lab. Animal Inc.) with water containing 3% DSS (dextran sodium sulfate).
The untreated (vehicle) mice were set as a control group, the mice fed with only DSS (vehicle+3% DSS) were set as a negative control group, and the mice administered intraperitoneally with SASP (sulfasalazine) at 50 mg/kg after treatment with DSS (SASP 50 mg/kg+3% DSS) were set as a positive control group. As a test group, the mice were intraperitoneally administered with HKFY-34 at 0.1, 1, and 10 mg/kg, respectively. HKFY-34 was administered once a day for 5 days, and during the administration period, the stool condition and body weight loss were measured in the subjects. […]

GPR39 [2] = biological target: T1, GPR39 (Homo sapiens, UniProt O43194); assay: luciferase assay system (SRE luciferase reporter gene, CV-1 cells expressing GPR39); format: cell-based; design: expressed in transfected cells; host or cells: CV-1 fibroblast cell line (Korea Cell Line Bank), adenoviral transduction at 50 MOI
T1 sequence (O43194 1-453): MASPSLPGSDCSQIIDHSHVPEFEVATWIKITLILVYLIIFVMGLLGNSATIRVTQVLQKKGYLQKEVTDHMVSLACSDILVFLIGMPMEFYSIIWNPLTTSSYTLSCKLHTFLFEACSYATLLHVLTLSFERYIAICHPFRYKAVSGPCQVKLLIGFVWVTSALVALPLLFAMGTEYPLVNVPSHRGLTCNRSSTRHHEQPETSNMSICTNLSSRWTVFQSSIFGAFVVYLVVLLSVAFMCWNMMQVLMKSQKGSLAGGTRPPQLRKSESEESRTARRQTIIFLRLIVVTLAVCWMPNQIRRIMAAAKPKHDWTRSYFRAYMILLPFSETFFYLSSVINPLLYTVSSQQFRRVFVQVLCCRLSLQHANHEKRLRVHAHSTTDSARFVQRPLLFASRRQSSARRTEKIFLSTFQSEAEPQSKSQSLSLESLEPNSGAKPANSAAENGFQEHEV

[3] = biological target: T2, neurotensin receptor (NTSR1) (Homo sapiens, UniProt P30989); assay: luciferase assay system, ghrelin receptor family selectivity; format: cell-based; conditions: compared with intrinsic ligand, FIG. 74
T2 construct: expressed in transfected cells
Protocol: (§1) In addition, through the activity test of the HKFY derivatives for similar receptors to GPR39, ghrelin receptor family (ghrelin receptor (GHSR), motilin receptor (MTLR), neurotensin receptor (NTSR1 & NTSR2), neuromedin U receptor (NMU1 & NMU2), TRH (thyrotropin releasing hormone) receptor (TRHR)), the selectivity and specificity for the GPR39 receptor were confirmed.
(§2) Specifically, the degree of activity between the intrinsic ligand and HKFY-34 for each receptor was analyzed using a luciferase assay system (FIG. 74).

[4] = biological target: T3, neuromedin U receptor (NMU2) (Homo sapiens, UniProt Q9GZQ4); assay: as above; format: cell-based; conditions: compared with intrinsic ligand, FIG. 74
T3 construct: expressed in transfected cells
Protocol: as §1, §2

HT-29 cells = assay: calcium ion concentration in HT-29 cells (Fluo-8); format: cell-based; conditions: 10 uM, vs untreated group (vehicle), FIG. 76
Protocol: It is known from studies using GPR39 deficient mice that calcium signaling is involved in the growth of intestinal tissue cells by GPR39 (Phil. Trans. R. Soc. B. 2016, 371:20150420). Therefore, it was confirmed whether calcium signaling is involved in the cell growth promoted by HKFY-34.
Specifically, HT-29 cells were cultured in a 96-well black culture plate and then treated with HKFY-34, and the calcium ion concentration in the cells was measured using a Fluo-8 Direct™ calcium assay kit (Thermo Fisher Scientific). As a result, the calcium ion concentration in HT-29 cells was increased by HKFY-34 compared to the untreated group (vehicle) (FIG. 76).

[5] = test system: ulcerative colitis-induced GPR39 deficient mice (Gpr39−/−); assay: DSS-induced ulcerative colitis in GPR39 deficient mice; format: in vivo
Protocol: In order to confirm the effect of HKFY-34 in an inflammatory bowel disease model using GPR39 as a target substance, a disease model of ulcerative colitis was prepared using GPR39 deficient mice (GPR39 knock out (KO), Gpr39^−/−). At this time, wild type mice born from a litter were set as a control group for each treated group of GPR39 deficient mice.
Specifically, an animal model of ulcerative colitis was prepared by feeding GPR39 deficient mice (Lexicon pharmaceuticals) and wild type mice with water containing 3% DSS in the same manner as in Experimental Example 7. GPR39 KO mice fed with only DSS (vehicle+3% DSS) were set as a negative control group, and GPR39 KO mice administered with HKFY-34 (10 mg/kg) (HKFY-34 10 mg/kg+3% DSS) were set as a test group. Intraperitoneal administration was performed once a day for 5 days.

GPR39 [6] = biological target: T1, GPR39; assay: calcium influx assay system (aequorin, CV-1 cells); format: cell-based; design: host or cells: CV-1 fibroblast cell line, lipofectamine transfection; conditions: CV-1 transfected with hGPR39, Gαq
Source text: After culturing, the degree of binding of calcium activated by activated GPR39 to aequrin was quantified using a luminometer (bottom in FIG. 73).

[7] = 0.1, 1 and 10 mg/kg intraperitoneal for 5 days, ELISA, vs negative control, FIG. 88
[8] = 0.1, 1 and 10 mg/kg intraperitoneal for 5 days, qPCR, FIG. 90
[9] = 0.1, 1 and 10 mg/kg intraperitoneal for 5 days, qPCR, vs negative control, FIG. 87

T3 sequence (Q9GZQ4 whole entry, species assumed): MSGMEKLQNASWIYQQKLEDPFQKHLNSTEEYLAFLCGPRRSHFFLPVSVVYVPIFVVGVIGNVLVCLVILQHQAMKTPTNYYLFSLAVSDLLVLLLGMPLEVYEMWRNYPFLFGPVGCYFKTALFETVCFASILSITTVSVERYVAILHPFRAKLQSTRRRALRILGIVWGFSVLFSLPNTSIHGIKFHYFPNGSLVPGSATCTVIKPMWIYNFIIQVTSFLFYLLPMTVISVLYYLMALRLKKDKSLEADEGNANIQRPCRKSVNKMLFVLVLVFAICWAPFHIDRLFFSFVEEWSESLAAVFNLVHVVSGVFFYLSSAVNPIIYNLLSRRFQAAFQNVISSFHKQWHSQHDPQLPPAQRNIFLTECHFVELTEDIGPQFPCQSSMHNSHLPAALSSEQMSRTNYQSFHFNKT
T2 sequence (P30989 whole entry, species assumed): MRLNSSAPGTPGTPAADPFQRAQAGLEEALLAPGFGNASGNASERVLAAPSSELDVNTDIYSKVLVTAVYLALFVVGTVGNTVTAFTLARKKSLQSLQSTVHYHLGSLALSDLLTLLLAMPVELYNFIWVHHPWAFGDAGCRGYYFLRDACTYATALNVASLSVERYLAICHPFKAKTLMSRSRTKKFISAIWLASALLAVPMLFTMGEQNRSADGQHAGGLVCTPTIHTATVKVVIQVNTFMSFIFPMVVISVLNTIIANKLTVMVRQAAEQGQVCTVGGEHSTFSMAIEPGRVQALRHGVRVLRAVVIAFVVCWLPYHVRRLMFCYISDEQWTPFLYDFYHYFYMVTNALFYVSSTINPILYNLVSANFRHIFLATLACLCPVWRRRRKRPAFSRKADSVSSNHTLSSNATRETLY

CCCCCCCC(=O)NCCCC[C@H](NC(=O)[C@@H](N)Cc1cn(C(c2ccccc2)c2ccccc2)cn1)C(=O)N[C@H](Cc1ccc(C)cc1)C(=O)N[C@@H](Cc1ccc(O)cc1)C(=O)O [HKFY-34, ((R)-2-((S)-2-((S)-2-amino-3-(1-benzhydryl-1H-imidazol-4-yl)propanamido)-6-octanamidohexanamido)-3-(p-tolyl)propanoyl)-L-tyrosine]
concentration of IL-1β in the blood [1, 7]: significantly decreased | concentration of TNF-α in the blood [1, 7]: significantly decreased | mRNA expression level of ZO-1 in colon tissue [1, 8]: significantly increased by HKFY-34 in a dose-dependent manner | mRNA expression level of occludin in colon tissue [1, 8]: significantly increased by HKFY-34 in a dose-dependent manner | mRNA expression level of IL-1β in colon tissue [1, 9]: significantly decreased | mRNA expression level of IL-6 in colon tissue [1, 9]: significantly decreased | mRNA expression level of IL-8 in colon tissue [1, 9]: significantly decreased | mRNA expression level of TNF-α in colon tissue [1, 9]: significantly decreased | length contraction of the colon ([1]; 0.1, 1 and 10 mg/kg intraperitoneal for 5 days, vs negative control (DSS alone), FIG. 84): reduced by HKFY-34 in a dose-dependent manner | degree of damage caused by inflammation of the colon tissue (H&E staining) ([1]; 0.1, 1 and 10 mg/kg intraperitoneal for 5 days, vs negative control, FIG. 89): alleviated | body weight loss ([1]; 0.1, 1 and 10 mg/kg intraperitoneal once a day for 5 days, 3% DSS, FIG. 83): significantly inhibited by HKFY-34 in a dose-dependent manner | stool consistency (diarrhea) score ([1]; 0.1, 1 and 10 mg/kg intraperitoneal, score 0 to 3, FIG. 85): alleviated in a dose-dependent manner | blood in stool (fecal bleeding) score ([1]; 0.1, 1 and 10 mg/kg intraperitoneal, score 0 to 3, FIG. 86): alleviated in a dose-dependent manner | ECmax (−fold induction over basal) (GPR39 [2]): 22.39 ± 4.59 fold induction over basal | Reporter gene assay ECmax (−fold induction over basal) (GPR39 [2]): 22.39 ± 4.59 fold induction over basal | activity level for GPR39 (in words) (GPR39 [2]; comment on Table 3): higher activity level than other HKFY derivatives | activity and ECmax value for GPR39 (in words) (GPR39 [2]; comment on Table 3, derivatives composed of d-Phe(methyl)): most excellent activity and high ECmax value | activity for NTSR1 [3]: very low | activity for NMU2 [4]: very low | calcium ion concentration in HT-29 cells (HT-29 cells): increased | inhibitory effect on the reduction of colon length ([5]; 10 mg/kg intraperitoneal for 5 days, FIG. 92): not observed | effect of reducing inflammatory damage of colon tissue (H&E staining) ([5]; 10 mg/kg intraperitoneal for 5 days, FIG. 95): not observed | inhibitory effect on body weight loss ([5]; 10 mg/kg intraperitoneal once a day for 5 days, 3% DSS, FIG. 91): no inhibitory effect | effect of alleviating stool consistency ([5]; 10 mg/kg intraperitoneal, vs negative control, FIG. 93): not observed | effect of alleviating blood in stool ([5]; 10 mg/kg intraperitoneal, vs negative control, FIG. 94): not observed | Ca2+ influx assay ECmax (−fold induction over basal) (GPR39 [6]): 2.4 ± 4.59 fold induction over basal
